Measured values reported in patent publication US12269823B2, “Crystal form of pyridopyrimidine derivative and preparation method thereof” (JIANGSU HENGRUI MEDICINE CO., LTD., priority 2020, dated 2025).

Experiments:
[1] = molecular target: T1, CYP3A4 (testosterone metabolic site) (Homo sapiens, UniProt P08684); test: Inhibition of testosterone metabolic site on human liver microsome CYP3A4; assay type: in vitro ADME; details: human liver microsomes, testosterone probe
T1 construct: Human liver microsome (Corning Gentest); tissue Corning Gentest; host or cells: human liver microsomes
Procedure: Test example 4. Inhibitory effect of the compound disclosed herein on enzymatic activity of testosterone metabolic site on human liver microsome CYP3A4
The inhibitory effect of the compound disclosed herein on the enzymatic activity of the testosterone metabolic site on human liver microsome CYP3A4 was determined by the following procedures:
• 1. Phosphate buffered saline (PBS), • 2. NADPH (Sigma N-1630), • 3. Human liver microsome (Corning Gentest), • 4. ABI QTrap 4000 LC-MS/MS System (AB Sciex), • 5. Inertsil C8-3 column, 4.6×50 mm, 5 (Dikma, USA), • 6. CYP probe substrate (testosterone/100 μM, SIGMA K1003) and positive control inhibitor (ketoconazole, Dr. Ehrenstorfer GmbH, C17322500). II. Procedures
A 100 mM PBS buffer was prepared and was used to prepare a 2.5 mg/mL microsome solution and a 5 mM NADPH solution. A compound working solution at 5× concentration was serially diluted with PBS (150, 50, 15, 5, 1.5, 0.15, 0.015 and 0 μM). A ketoconazole working solution at 5× concentration was serially diluted with PBS (150, 50, 15, 5, 1.5, 0.15, 0.015 and 0 μM). A dextromethorphan working solution was diluted to 50 μM with PBS. […]
The IC50 values of the drug for testosterone metabolic site on CYP3A4 were calculated by Graphpad Prism and are shown in Table 1-4.

[2] = test system: IL-12 secretion in peripheral blood mononuclear cells (PBMCs); test: Stimulation of IL-12 secretion in PBMCs; assay type: cell-based, human; details: 24 h incubation
Procedure: Test example 5. Determination of the ability of the compound disclosed herein to stimulate IL-12 and IFNγ secretion in peripheral blood mononuclear cells (PBMCs) The ability of the compound disclosed herein to stimulate IL-12 and IFNγ secretion in PBMCs was determined by the following procedures:
• 1. RPMI 1640 (Invitrogen, 11875), • 2. FBS (Gibco, 10099-141), • 3. Ficoll-Paque PREMIUM (GE, 17-5442-02), • 4. Trypan blue solution (Sigma, T8154-100ML), • 5. SepMateTM-50 (Stemcell, 15460), • 6. Bright-Line™ cytometer (Sigma, Z359629-1EA), • 7. 96-well flat bottom plate (Corning, 3599), • 8. 96-well v-bottom plate (Corning, 3894), • 9. Human IL-12 ELISA kit (NEOBIOSCIENCE, EHC152.96), • 10. Human IFN γ kit (Cisbio, 62HIFNGPEG), • 11. PHERAStar Multi-Mode Microplate Reader (BMG, PHERAStar). II. Procedures […]
All reagents were equilibrated to room temperature. […] The cells were resuspended in RMPI 1640 culture medium containing 10% FBS, counted and adjusted to 3.33×10^6 cells/mL. […]
The reagents of the Human IL-12 detection kit was equilibrated to room temperature. […] Finally, a terminating solution was added to terminate the reaction, and the plate was detected for the absorbance at 450 nm using a microplate reader. […]
The ability of the compound disclosed herein to stimulate IL-12 and IFNγ secretion in PBMCs was determined by the above test and the MEC values obtained are shown in Table 1-5.

[3] = test system: Cyp and hERG; details: background statement; cited from earlier work
[4] = molecular target: T2, TLR7 (Homo sapiens, UniProt Q9NYK1); details: background statement; cited from earlier work
T2 sequence (Q9NYK1 27-1049): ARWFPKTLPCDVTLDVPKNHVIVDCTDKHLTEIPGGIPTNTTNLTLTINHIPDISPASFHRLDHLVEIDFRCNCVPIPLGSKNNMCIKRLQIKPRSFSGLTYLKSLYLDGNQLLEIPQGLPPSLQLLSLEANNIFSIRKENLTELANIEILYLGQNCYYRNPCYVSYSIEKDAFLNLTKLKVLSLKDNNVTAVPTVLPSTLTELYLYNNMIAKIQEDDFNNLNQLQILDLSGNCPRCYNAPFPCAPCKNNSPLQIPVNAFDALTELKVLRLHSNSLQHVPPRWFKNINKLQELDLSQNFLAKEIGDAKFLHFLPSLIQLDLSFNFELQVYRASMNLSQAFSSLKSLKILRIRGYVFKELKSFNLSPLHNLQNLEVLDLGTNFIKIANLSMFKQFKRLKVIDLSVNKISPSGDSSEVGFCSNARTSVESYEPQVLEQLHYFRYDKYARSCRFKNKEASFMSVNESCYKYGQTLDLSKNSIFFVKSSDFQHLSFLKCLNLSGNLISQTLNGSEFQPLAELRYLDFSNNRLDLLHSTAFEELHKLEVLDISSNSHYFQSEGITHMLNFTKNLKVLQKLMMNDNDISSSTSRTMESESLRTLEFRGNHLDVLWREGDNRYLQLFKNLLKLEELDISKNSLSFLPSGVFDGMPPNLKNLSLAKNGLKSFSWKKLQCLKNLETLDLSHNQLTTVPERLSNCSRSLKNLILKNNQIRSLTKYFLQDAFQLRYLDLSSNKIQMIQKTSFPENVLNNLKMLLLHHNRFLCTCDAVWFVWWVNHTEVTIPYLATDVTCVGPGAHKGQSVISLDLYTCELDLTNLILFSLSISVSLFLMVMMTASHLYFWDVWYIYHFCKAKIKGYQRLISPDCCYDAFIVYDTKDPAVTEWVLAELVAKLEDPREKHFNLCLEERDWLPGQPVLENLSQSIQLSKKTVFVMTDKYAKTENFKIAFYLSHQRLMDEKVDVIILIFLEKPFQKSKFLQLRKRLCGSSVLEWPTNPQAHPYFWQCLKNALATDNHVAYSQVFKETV

[5] = Stability under long-term and accelerated conditions, 3 months; assay type: physicochemical
Procedure: The crystalline form B of the compound of formula (I) was examined for the stability under long-term (25° C., 60% RH) and accelerated (40° C., 75% RH) conditions in a period of 3 months.

[6] = 30-day influencing factor stability test (heating, illumination, high humidity); assay type: physicochemical
Procedure: The crystalline form A and crystalline form B of the compound of formula (I) were transferred and let stand in clean open weighing bottles to test the stability under the conditions of heating (40° C., 60° C.), illumination (4500 1×±500 1×) and high humidity (90%±5%, 75%±5%) during an inspection period of 30 days.

T1 sequence (P08684 whole entry): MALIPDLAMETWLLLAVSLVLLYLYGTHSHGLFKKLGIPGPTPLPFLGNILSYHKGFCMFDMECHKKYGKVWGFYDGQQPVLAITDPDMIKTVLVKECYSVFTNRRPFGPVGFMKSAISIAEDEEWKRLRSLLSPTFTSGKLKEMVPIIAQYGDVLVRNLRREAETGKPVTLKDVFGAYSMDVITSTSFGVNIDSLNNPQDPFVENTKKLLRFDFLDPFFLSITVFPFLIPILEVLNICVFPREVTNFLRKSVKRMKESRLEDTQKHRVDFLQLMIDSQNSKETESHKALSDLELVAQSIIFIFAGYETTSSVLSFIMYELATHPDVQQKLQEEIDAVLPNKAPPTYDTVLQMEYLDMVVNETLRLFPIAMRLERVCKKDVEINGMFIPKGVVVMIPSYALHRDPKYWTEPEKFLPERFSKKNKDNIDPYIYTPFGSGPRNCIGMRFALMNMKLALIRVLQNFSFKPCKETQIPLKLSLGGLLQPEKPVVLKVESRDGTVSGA

SMILES	Selectivity for Cyp and hERG (in words) [3]	Activity on TLR7 (in words) [4]	Purity ([6]; 40° C., 5 days) [%]	Purity ([6]; 40° C., 10 days) [%]	Purity ([6]; 40° C., 30 days) [%]	Purity ([6]; 60° C., 5 days) [%]	Purity ([6]; 60° C., 10 days) [%]	Purity ([6]; 60° C., 30 days) [%]	Purity ([6]; 4500 lux, 5 days) [%]	Purity ([6]; 4500 lux, 10 days) [%]	Purity ([6]; 4500 lux, 30 days) [%]	Purity ([6]; Initial, 0 days) [%]	Purity ([6]; RH 75%, 5 days) [%]	Purity ([6]; RH 75%, 10 days) [%]	Purity ([6]; RH 75%, 30 days) [%]	Purity ([6]; RH 90%, 5 days) [%]	Purity ([6]; RH 90%, 10 days) [%]	Purity ([6]; RH 90%, 30 days) [%]	further results
CCCC[C@](C)(CO)Nc1nc(N)nc2cc(-c3ccc(CN4CCN(C)CC4)nc3)cnc12 [Example 1, (R)-2-((2-amino-7-(6-((4-methylpiperazin-1-yl)methyl)pyridin-3-yl)pyrido[3,2-d]pyrimidin-4-yl)amino)-2-methylhexan-1-ol]	–	–	–	–	–	–	–	–	–	–	–	–	–	–	–	–	–	–	IC50 at 30 min [1]: > 30 µM; IL-12 MEC (minimum effective concentration) [2]: 41 nM
CCCC[C@](C)(CO)Nc1nc(N)nc2cc(F)cnc12 [GS-9688]	poor selectivity for Cyp and hERG	certain activity on TLR7	–	–	–	–	–	–	–	–	–	–	–	–	–	–	–	–	–
CCCC[C@](C)(CO)Nc1nc(N)nc2cc(-c3ccc(CN4CCN(C)CC4)nc3)cnc12 [crystalline form B]	–	–	98.19	98.17	97.23	97.87	97.53	96.24	95.48	92.61	88.03	98.65	98.65	98.69	97.96	98.69	98.75	97.99	Physical and chemical stability (in words) ([5]; 3 months, long-term (25° C., 60% RH) and accelerated (40° C., 75% RH)): good physical and chemical stabilities; Purity ([5]; 25° C., 60% RH, Initial): 99.71%; Purity ([5]; 25° C., 60% RH, Month 1): 99.70%; Purity ([5]; 25° C., 60% RH, Month 2): 99.71%; Purity ([5]; 25° C., 60% RH, Month 3): 99.62%; Purity ([5]; 40° C., 75% RH, Initial): 99.71%; Purity ([5]; 40° C., 75% RH, Month 1): 99.69%; Purity ([5]; 40° C., 75% RH, Month 2): 99.68%; Purity ([5]; 40° C., 75% RH, Month 3): 99.54%
CCCN(CCC)C(=O)C1=Cc2ccc(-c3ccc(C(=O)N4CCCC4)cc3)cc2N=C(N)C1 [VTX-2337]	poor selectivity for Cyp and hERG	certain activity on TLR7	–	–	–	–	–	–	–	–	–	–	–	–	–	–	–	–	–
CCCC[C@](C)(CO)Nc1nc(N)nc2cc(-c3ccc(CN4CCN(C)CC4)nc3)cnc12 [crystalline form A]	–	–	96.98	96.98	95.47	95.87	95.72	93.74	95.82	94.99	92.51	97.83	97.83	97.85	97.47	97.91	97.84	97.53	–
